Publication PMC9753513 (ACS Omega, 2022)

Target: T1, human dihydrofolate reductase (hDHFR) (Homo sapiens, UniProt P00374)
T1 sequence (P00374 1-187): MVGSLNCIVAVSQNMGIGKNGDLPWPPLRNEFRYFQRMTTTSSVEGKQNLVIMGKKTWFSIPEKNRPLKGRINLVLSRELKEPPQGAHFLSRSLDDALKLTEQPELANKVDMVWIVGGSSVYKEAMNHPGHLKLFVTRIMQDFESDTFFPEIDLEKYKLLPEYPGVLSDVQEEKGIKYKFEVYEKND
Test: hDHFR inhibition assay
Format: biochemical

IC50: 0.28 µM
SMILES: CN(C)c1ccc(C=NNC(=O)CSc2nc3sc4c(c3c(=O)n2-c2ccccc2)CCCCC4)cc1 [compound 23, N′-[4-(Dimethylamino)benzylidene]-2-[(4-oxo-3-phenyl-6,7,8,9-tetrahydro-3H-cyclohepta[4,5]thieno[2,3-d]pyrimidin-2-yl)thio]acetohydrazide]
